These results are taken from patent US10226048B2 (priority 2014, dated 2019).

Where two headings read alike, the source gives them in different places.

The test system of one series is E-Coli. The conditions noted are these: 2% HP.
Series [1] concerns Staphylococcus Epidermidis. The conditions noted are these: 2% HP.
Series [2] is described as follows: Dissociation of PAA in aqueous solution. The conditions noted are these: pH 9.5.
Series [3] is described as follows: Stability of PAA/NVPA in alkaline solution (ion-exchange chromatography). In kind it is physicochemical. The conditions noted are these: for total PAA decomposed: pH adjusted to 9.3 with sodium hydroxide. Here is the method:
PAA is not very stable in both acidic and basic solutions (reactions 2 and 3), and is decomposed into acetic acid and oxygen easily. Additionally, PAA is decomposed by metal catalysis and hydrolysis, respectively, in an aqueous solution. […] When sodium hydroxide was used to adjust the pH of PAA solution to 9.3, about 80% of the total PAA were decomposed in 1 minute, with more than 90% being decomposed in 5 minutes. (FIG. 4).
Rapid decomposition of PAA will result in a loss of the disinfecting ability. Thus, it is critical to maintain PAA relatively stable in an alkaline solution. When pH was adjusted partially by sodium carbonate, greater than 90% of the total PAA was maintained in the 10 minutes (FIG. 4). The addition of a metal complexing agent, such as sodium pyrophosphate, etc., may be used to stabilize PAA. It is very important to maintain a relatively long pot-life of NVPA, because some microorganisms are difficult to being killed. Such microorganisms may require at least 3-5-minutes of contact time with the disinfecting detergent. Since NVPA is not very stable, the formulation of the invention is divided to two parts to preserve a long shelf life of PAA. The two parts will be mixed just prior to use. After mixing, PAA will be converted to NVPA and 90% of the total PAA will remain for at least 10 minutes.
FIG. 4. The pH of PAA solution was 9.3. The initial concentrations of PAA and HP were 0.2% (w/w %) and 4% (w/w %), respectively. The pH of the solution was adjusted by sodium hydroxide solution or sodium phosphate solution, and sodium carbonate or a stabilizer such like sodium pyrophosphate was used to stabilize PAA. The quantitative determination of PAA/NVPA was performed by ion-exchange chromatography.

In the case of `OO` [HP, hydrogen peroxide], the Disinfecting efficacy is roughly 90% with E-Coli (contact time 1 minute), roughly 99% in the series on E-Coli (contact time 2 minutes), roughly 90% in series [1] (contact time 1 minute) and roughly 99% in series [1] (contact time 2 minutes).
Consider `CC(=O)OO` [NVPA, non-volatile peracetate], for which the “share of initial PAA concentration existing in this state” value in series [2] was 95%.
As to `CC(=O)OO` [PAA, Peracetic Acid], the “total PAA maintained” value in series [3] (pH adjusted partially by sodium carbonate, in 10 minutes) is listed as “greater than 90%”. Moreover, the results for the “total PAA decomposed” value in series [3] (in 1 minute) and in series [3] (in 5 minutes) were “about 80%” and “more than 90%”, respectively. In addition, the “share of initial PAA concentration existing in this state” value in series [2] is recorded as 5%.
